Measured values published in patent US20220324803A1 (Teon Therapeutics, Inc., priority 2019, published 2022).

Target: T1, human Prostanoid EP4 Receptor (EP4) (Homo sapiens, UniProt P35408)
T1 construct: expressed in transfected cells; host or cells: HEK293 (G418 selection); membranes prepared by differential centrifugation
Experiment: Prostanoid EP4 binding assay (3H-prostaglandin E2 displacement, cell membranes)
Settings: HEK293 cell membranes with human EP4, 3H-prostaglandin E2, 24° C.
Method: HEK293 cells transfected with human Prostanoid EP4 Receptor (EP4) are maintained in DMEM supplemented with L-Glutamine, 10% FBS and 300 μg/ml G418. Cells are harvested and membranes prepared by differential centrifugation, following lysis of the cells in the presence of protease inhibitors, for use in the receptor binding assay. EP4 binding assay is performed in 50 mM HEPES pH7.4, 5 mM MgCl2, 1 mM CaCl2) and 0.2% BSA. Testing compounds are diluted with DMSO to make 8-point 4-fold serial dilution. Cell membrane homogenates are incubated at 24° C. with ^3H-prostaglandin E2 in the absence or presence of the testing compound in assay buffer. Nonspecific binding (Low control: LC) and total binding (High control: HC) are determined in the presence or absence of saturated cold ligand Prostaglandin E2 (PGE2). Specific binding is calculated by subtracting nonspecific binding from total binding. When binding assays are completed, the reaction mixture is filtered rapidly under vacuum through glass fiber filters (GF/C, Packard) presoaked with 0.5% BSA for at least 0.5 hour at room temperature and then washed for 4 times with cold wash buffer (50 mM HEPES pH7.4, 500 mM NaCl, 0.1% BSA) using a 96-sample Perkin Elmer Filtermate Harvester (Unifilter, Packard). The filters are dried for 1 hour at 50 degrees then counted for radioactivity in a scintillation counter using Perkin Elmer Microscint 20 cocktail. ^3H trapped on filter is counted using Perkin Elmer MicroBeta2 Reader. Inhibition is calculated using following equation: % Inhibition=(1−(Assay well−Average_LC)/(Average_HC−Average_LC))×100%. The results are expressed as a percent inhibition of the control radioligand specific binding. Data are analyzed and IC50 is calculated using GraphPad Prism 5 and the model “log(inhibitor) vs. response—Variable slope”. The binding affinity of the compounds is determined by using the Cheng and Prusoff equation Ki=IC50/(1+[radioligand]/Kd).

T1 sequence (P35408 whole entry): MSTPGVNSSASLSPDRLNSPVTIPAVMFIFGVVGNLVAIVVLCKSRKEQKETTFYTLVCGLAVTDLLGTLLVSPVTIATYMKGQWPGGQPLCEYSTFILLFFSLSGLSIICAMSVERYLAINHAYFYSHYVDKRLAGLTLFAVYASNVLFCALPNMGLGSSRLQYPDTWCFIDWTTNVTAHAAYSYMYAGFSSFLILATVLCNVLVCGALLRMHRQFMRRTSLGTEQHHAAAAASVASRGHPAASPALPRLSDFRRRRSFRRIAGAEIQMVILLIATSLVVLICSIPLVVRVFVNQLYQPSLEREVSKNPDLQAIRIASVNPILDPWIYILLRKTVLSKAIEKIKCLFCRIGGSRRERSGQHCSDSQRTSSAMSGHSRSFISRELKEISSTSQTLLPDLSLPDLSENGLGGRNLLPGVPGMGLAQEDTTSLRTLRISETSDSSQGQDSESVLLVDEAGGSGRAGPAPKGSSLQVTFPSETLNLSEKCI

Ki | Structure (SMILES)
< 100 nM | CC(C)Cn1nc(C(=O)N[C@@H](C)c2ccc(C(=O)O)cc2)c2c(Cc3ccc(C(F)(F)F)cc3)cccc21 [Compound 23, 4-[(1S)-1-[[1-isobutyl-4-[[4-(trifluoromethyl)phenyl]methyl]indazole-3-carbonyl]amino]ethyl]benzoic acid]
100 to 499 nM | CCn1nc(C(=O)NC23CC(CC(=O)O)(C2)C3)c2c(Cc3ccc(C(F)(F)F)cc3)cccc21 [Compound 19, 2-[3-[[1-ethyl-4-[[4-(trifluoromethyl)phenyl]methyl]indazole-3-carbonyl]amino]-1-bicyclo[1.1.1]pentanyl]acetic acid]
< 100 nM | C[C@@H](NC(=O)c1cnn2cccc(Cc3ccc(C(F)(F)F)cc3)c12)c1ccc(C(=O)O)cc1 [Compound 27, 4-[(1R)-1-[[4-[[4-(trifluoromethyl)phenyl]methyl]pyrazolo[1,5-a]pyridine-3-carbonyl]amino]ethyl]benzoic acid]
< 100 nM | O=C(O)C[C@H]1CC[C@H](NC(=O)c2cn(CCF)c3nccc(Cc4ccc(C(F)(F)F)cc4)c23)CC1 [Compound 57, 2-[(1r,4r)-4-[[1-(2-fluoroethyl)-4-[[4-(trifluoromethyl)-phenyl]methyl]pyrrolo[2,3-b]pyridine-3-carbonyl]amino]cyclohexyl]acetic acid]
> 500 nM | O=C(NCC12CCC(C(=O)O)(CC1)C2)c1cnn2cccc(Cc3ccc(C(F)(F)F)cc3)c12 [Compound 50, 4-[[[4-[[4-(trifluoromethyl)phenyl]methyl]pyrazolo[1,5-a]pyridine-3-carbonyl]amino]methyl]norbornane-1-carboxylic acid]
100 to 499 nM | O=C(O)CC12CC(NC(=O)c3ncn4cccc(Cc5ccc(C(F)(F)F)cc5)c34)(C1)C2 [Compound 17, 2-[3-[[8-[[4-(trifluoromethyl)phenyl]methyl]imidazo[1,5-a]pyridine-1-carbonyl]amino]-1-bicyclo[1.1.1]pentanyl]acetic acid]
> 500 nM | O=C(N[C@H]1CC[C@@H](C(=O)O)CC1)c1cnn2cccc(Cc3ccc(C(F)(F)F)cc3)c12 [Compound 32, (1s,4s)-4-[[4-[[4-(trifluoromethyl)phenyl]methyl]pyrazolo[1,5-a]pyridine-3-carbonyl]amino]cyclohexanecarboxylic acid]
< 100 nM | O=C(O)CC12CC(NC(=O)c3cn(CCF)c4cccc(Cc5ccc(C(F)(F)F)cc5)c34)(C1)C2 [Compound 52, 2-[3-[[1-(2-fluoroethyl)-4-[[4-(trifluoromethyl)phenyl]methyl]-indole-3-carbonyl]amino]-1-bicyclo[1.1.1.1]pentanyl]acetic acid]
< 100 nM | CCn1cc(C(=O)NC[C@H]2CC[C@H](C(=O)O)CC2)c2c(Cc3ccc(C(F)(F)F)cc3)cccc21 [Compound 55, (1r,4r)-4-[[[1-ethyl-4-[[4-(trifluoromethyl)phenyl]methyl]indole-3-carbonyl]amino]methyl]cyclohexanecarboxylic acid]
100 to 499 nM | O=C(NC12CCC(C(=O)O)(CC1)CC2)c1cnn2cccc(Cc3ccc(C(F)(F)F)cc3)c12 [Compound 36, 4-[[4-[[4-(trifluoromethyl)phenyl]methyl]pyrazolo[1,5-a]pyridine-3-carbonyl]amino]bicyclo[2.2.2]octane-1-carboxylic acid]
100 to 499 nM | O=C(N[C@H]1CC[C@H](C(=O)O)CC1)c1cnn2cccc(Cc3ccc(C(F)(F)F)cc3)c12 [Compound 33, (1r,4r)-4-[[4-[[4-(trifluoromethyl)phenyl]methyl]pyrazolo[1,5-a]pyridine-3-carbonyl]amino]cyclohexanecarboxylic acid]
100 to 499 nM | CCn1nc(C(=O)N[C@H]2CC3(C2)C[C@H](C(=O)O)C3)c2c(Cc3ccc(C(F)(F)F)cc3)cccc21 (single isomer, unassigned) [Compound 11A, cis-2-[[1-ethyl-4-[[4-(trifluoromethyl)phenyl]methyl]indazole-3-carbonyl]amino]spiro[3.3]heptane-6-carboxylic acid]
< 100 nM | O=C(O)CC1CCC(NC(=O)c2cnn3cccc(Cc4ccc(C(F)(F)F)cc4)c23)C1 (stereo not drawn) [Compound 37, 2-[3-[[4-[[4-(trifluoromethyl)phenyl]methyl]pyrazolo[1,5-a]pyridine-3-carbonyl]amino]cyclopentyl]acetic acid]

The next lines start with the compound.

Structure (SMILES) | Ki
CCn1cc(C(=O)N[C@H]2CC[C@H](CC(=O)O)CC2)c2c(Cc3ccc(C(F)(F)F)cc3)cccc21 [Compound 56, 2-[(1r,4r)-4-[[1-ethyl-4-[[4-(trifluoromethyl)phenyl]methyl]indole-3-carbonyl]amino]cyclohexyl]acetic acid] | < 100 nM
O=C(O)CC1CCC(NC(=O)c2cnn3cccc(Cc4ccc(C(F)(F)F)cc4)c23)CC1 (stereo not drawn) [Compound 34, 2-[4-[[4-[[4-(trifluoromethyl)phenyl]methyl]pyrazolo[1,5-a]pyridine-3-carbonyl]amino]cyclohexyl]acetic acid] | < 100 nM
CCn1cc(C(=O)N[C@@H](C)c2ccc(C(=O)O)cc2)c2c(Cc3ccc(C(F)(F)F)cc3)cccc21 [Compound 42, 4-[(1S)-1-[[1-ethyl-4-[[4-(trifluoromethyl)phenyl]methyl]indole-3-carbonyl]amino]ethyl]benzoic acid] | < 100 nM
CCn1cc(C(=O)NC23CC(CC(=O)O)(C2)C3)c2c(Cc3ccc(C(F)(F)F)cc3)ccnc21 [Compound 53] | < 100 nM
O=C(O)CC12CC(NC(=O)c3cn(CCF)c4nccc(Cc5ccc(C(F)(F)F)cc5)c34)(C1)C2 [Compound 54, 2-[3-[[1-(2-fluoroethyl)-4-[[4-(trifluoromethyl)phenyl]methyl]-pyrrolo[2,3-b]pyridine-3-carbonyl]amino]-1-bicyclo[1.1.1]pentanyl]acetic acid] | < 100 nM
O=C(O)Cc1ccc(NC(=O)c2cnn3cccc(Cc4ccc(C(F)(F)F)cc4)c23)cc1 [Compound 28, 2-[4-[[4-[[4-(trifluoromethyl)phenyl]methyl]pyrazolo[1,5-a]pyridine-3-carbonyl]amino]phenyl]acetic acid] | 100 to 499 nM
O=C(O)c1ccc(C2(NC(=O)c3cnn4cccc(Cc5ccc(C(F)(F)F)cc5)c34)CC2)cc1 [Compound 26, 4-[1-[[4-[[4-(trifluoromethyl)phenyl]methyl]pyrazolo[1,5-a]pyridine-3-carbonyl]amino]cyclopropyl]benzoic acid] | < 100 nM
O=C(N[C@H]1CC2(C1)C[C@H](C(=O)O)C2)c1ncn2cccc(Cc3ccc(C(F)(F)F)cc3)c12 (single isomer, unassigned) [Compound 6A, cis-2-[[8-[[4-(trifluoromethyl)phenyl]methyl]imidazo[1,5-a]pyridine-1-carbonyl]amino]spiro[3.3]heptane-6-carboxylic acid] | > 500 nM
CC(C)Cn1nc(C(=O)N[C@H]2CC3(C2)C[C@H](C(=O)O)C3)c2c(Cc3ccc(C(F)(F)F)cc3)cccc21 (stereo partly drawn) [Compound 24, trans-2-[[1-isobutyl-4-[[4-(trifluoromethyl)phenyl]methyl]indazole-3-carbonyl]amino]spiro[3.3]heptane-6-carboxylic acid] | < 100 nM
C[C@H](NC(=O)c1cn(CCF)c2nccc(Cc3ccc(C(F)(F)F)cc3)c12)c1ccc(C(=O)O)cc1 [Compound 47, 4-[(1S)-1-[[1-(2-fluoroethyl)-4-[[4-(trifluoromethyl)phenyl]methyl]pyrrolo[2,3-b]pyridine-3-carbonyl]amino]ethyl]benzoic acid] | < 100 nM
O=C(NC[C@H]1CC[C@H](C(=O)O)CC1)c1cn(CCF)c2nccc(Cc3ccc(C(F)(F)F)cc3)c12 [Compound 58, (1r,4r)-4-[[[1-(2-fluoroethyl)-4-[[4-(trifluoromethyl)-phenyl]methyl]-pyrrolo[2,3-b]pyridine-3-carbonyl]amino]methyl]cyclohexanecarboxylic acid] | < 100 nM
O=C(NC1CC2(C1)CC(C(=O)O)C2)c1cnn2cccc(Cc3cc4ccccc4cn3)c12 (single isomer, unassigned) [Compound 13B, trans-2-[[4-(3-isoquinolylmethyl)pyrazolo[1,5-a]pyridine-3-carbonyl]amino]spiro[3.3]heptane-6-carboxylic acid] | < 100 nM
O=C(O)CC12CCC(NC(=O)c3cnn4cccc(Cc5ccc(C(F)(F)F)cc5)c34)(CC1)CC2 [Compound 35, 2-(4-(4-(4-(trifluoromethyl)benzyl)pyrazolo[1,5-a]pyridine-3-carboxamido)bicyclo[2.2.2]octan-1-yl)acetic acid] | 100 to 499 nM
CC(C)n1nc2cccc(Cc3ccc(C(F)(F)F)cc3)c2c1C(=O)N[C@@H](C)c1ccc(C(=O)O)cc1 [Compound 29, 4-[(1S)-1-[[2-isopropyl-4-[[4-(trifluoromethyl)phenyl]methyl]indazole-3-carbonyl]amino]ethyl]benzoic acid] | < 100 nM
